# “Also recorded” adds a separate entry of the source.
# Key:
# [1] = system: intestinal epithelial cell; settings: rodents, cited from earlier work
# AMD1 = AMD1 up-regulation post scratch (immunofluorescence, western blot); type: cell-based, human; settings: combined pre-treatment: 1 μM Tg 24 hours and 2 mM EGTA 1 hour; 6 hours post scratch
# Procedure: (§1) It was then sought to determine if the up-regulation of AMD1 at the wound-edge was dependent on the wound-induced calcium wave. Human keratinocytes were labelled with the Ca^2+ probe Fluo-4 for 30 minutes prior to scratching to mimic a wound response. […] To assess the impact of a reduced calcium wave on up-regulation of AMD1, cells were pre-treated for 24 hours with 1 μM thapsigargin (Tg) and for 1 hour with 2 mM EGTA prior to scratch to deplete internal calcium stores and extracellular calcium, respectively.
# (§2) Keratinocytes were seeded in glass-bottom 35-mm^2 dishes and cultured to full confluency in cell culture media. To deplete intracellular and extracellular Ca^2+ sources, cells were treated with 1 μM thapsigargin (Tg) (Sigma-Aldrich) for 24 hours and 2 mM ethylene glycol tetraacetic acid (EGTA, Sigma-Aldrich) for 1 hour prior to scratch. For Ca^2+ flux imaging, cells were incubated with Fluo-4,AM (Life Technologies; Thermo Fisher Scientific) and imaged with an automated confocal microscope (Spinning disk 3D-FRAP; Nikon Ti) at 0.2 second intervals for 5 minutes. Image analysis was performed using ImageJ software.
# N/TERT-1 keratinocytes = assay: In vitro scratch cell migration assay; type: cell-based, human; settings: for cell migration / closure of scratch wound: control keratinocytes, 5 μM added 48 h prior to scratch, Incucyte wound width
# Procedure: (§3) Human immortalized keratinocytes (Dickson et al., 2000), N/TERT-1 were obtained and cultured in keratinocyte serum-free media (K-SFM; Life Technologies; Thermo Fisher Scientific) supplemented with 25 μg/ml bovine pituitary extract (BPE), 0.2 ng/ml epidermal growth factor (EGF), and 0.3 mM CaCl2, as previously described (Rheinwald et al., 2002). To culture cells to 100% confluence for scratch assays, N/TERT-1 cells were first cultured to 50% confluence in supplemented K-SFM growth medium and then switched to a media with a 1:1 ratio mixture of supplemented K-SFM and DF-K (a mixture of calcium free, glutamine free DMEM (Hyclone; GE Healthcare) with Ham's F-12/GlutaMAX (Gibco; Life Technologies; Thermo Fisher Scientific) at 1:1 (vol/vol) supplemented with 5 μg/ml BPE, 0.2 ng/ml EGF, and 1.5 mM L-glutamine (Life Technologies; Thermo Fisher Scientific)) until 100% confluent. Human HEK293T cells (Dharmacon; GE Healthcare) were used for lentiviral production as the packaging cell line and cultured in high glucose DMEM (Hyclone; GE Healthcare) with 10% fetal calf serum. All cells were grown in a humidified incubator with 5% CO2 at 37° C.
# In Vitro Scratch Cell Migration Assay
# Confluent keratinocytes on ImageLock 96-well microplates (Essen BioScience, Inc) were scratched using a 96-pin wound maker (Essen BioScience, Inc) to create homogeneous, 700-800-μm wide scratch wounds in cell monolayers. Scratched cells were imaged using a real-time cell imaging system, IncuCyte, (Essen BioScience, Inc) to monitor cell migration. Putrescine, spermidine, or spermine (5 μM, Sigma-Aldrich) were added to cells and incubated for 48 h prior to scratch. For analysis of protein and RNA expression in migrating cells, keratinocytes were cultured to full confluency in a 6-well culture dish (Corning Costar) and scratched with the large end of a 1-mL pipette tip. At specific time points, the cells were either harvested in lysis buffer (150 mM sodium chloride, 1% (v/v) Triton X-100, 0.5% sodium deoxycholate, 1% (v/v) sodium dodecyl sulfate, 50 mM Tris-HCl, 1% (v/v) Nonidet P-40 (NP-40), 0.1 mM phenylmethylsulfonyl fluoride (PMSF), 5 mM EDTA, and 1% (v/v) protease and phosphatase inhibitor cocktail) for western blot or Trizol reagent (Life Technologies; Thermo Fisher Scientific) for RNA analysis.
# [2] = system: scratch-induced calcium wave in keratinocytes; assay: Calcium wave imaging after scratch (Fluo-4); type: cell-based, human; settings: combined pre-treatment: 1 μM Tg 24 hours and 2 mM EGTA 1 hour prior to scratch
# Procedure: as §1, §2
# human ex vivo wounds = assay: Human ex vivo excisional skin wounds, epithelial tongue length; type: cell-based; settings: 500 μM topically every 24 hours for 3 days; examined after 72 hours; PBS control
# Source text: Human skin samples were sourced from Dr T. C. Lim at the Yong Loo Lin School of Medicine, National University of Singapore. Written consent from participants was obtained in all cases. The study was done in accordance with the declaration of Helsinki and was approved by a local scientific ethics review board. The skin was further dissected into 6-mm cubes or circles. Excisional skin wounds of approximately 3 to 4 mm were made with surgical scissors. The ex vivo wounded skin explants were cultured at the air-liquid interface and treated topically with 500 μM of putrescine, spermidine, spermine or 1× phosphate-buffered saline (PBS) every 24 hours for 3 days. Non-wounded skin, day 0- and day 3-wounded biopsies were bisected, with half snap-frozen in Optimal Cutting Temperature Compound (OCT) and the other half fixed in 10% buffered formalin saline and embedded in paraffin for histological analysis.
# Histological sections were prepared from wound tissue embedded in paraffin or snap-frozen in OCT. […] Images were acquired using a fluorescence microscope (Zeiss AxioImager Z1; Carl Zeiss). […]
# sh-AMD1 keratinocytes = settings: supplementation in cell culture media, listed as Spermine
# Procedure: as §3
# Confluent keratinocytes on ImageLock 96-well microplates (Essen BioScience, Inc) were scratched using a 96-pin wound maker (Essen BioScience, Inc) to create homogeneous, 700-800-μm wide scratch wounds in cell monolayers. […]
smiles,measurement,setting,value
"NCCCC(N)(C(=O)O)C(F)F (racemic) [DFMO, (RS)-2,5-diamino-2-(difluoromethyl)pentanoic acid]",intestinal epithelial cell migration and proliferation,[1]; ODC1 inhibition,prevents intestinal epithelial cell migration and proliferation
O=C(O)CN(CCN(CC(=O)O)CC(=O)O)CC(=O)O [EDTA],AMD1 up-regulation in scratched cells,AMD1,completely abrogates AMD1 protein up-regulation
"CCC(/C=N/N=C(N)N)=N\N=C(N)N [EGBG, reference compound]",cell migration after AMD1 inhibitor,"N/TERT-1 keratinocytes; data not shown, concentration not given",resulted in a similar delay in cell migration
"O=C(O)CN(CCOCCOCCN(CC(=O)O)CC(=O)O)CC(=O)O [EGTA, ethylene glycol tetraacetic acid]",AMD1 up-regulation in scratched cells,AMD1,completely abrogated
same,propagation of calcium wave upon scratch,[2],effectively prevented the calcium wave
"NCCCCN [putrescine, butane-1,4-diamine, reference compound]",rescue of DFMO effect on intestinal epithelial cell migration and proliferation,[1]; supplementation after DFMO,can be rescued through supplementation with putrescine
same,cell migration / closure of scratch wound,N/TERT-1 keratinocytes,significantly impedes cell migration
same,cell migration / closure of scratch wound,N/TERT-1 keratinocytes; listed as Putrescine,caused an inhibition of keratinocyte migration and a delay in closure of the scratch wound
"NCCCCNCCCN [spermidine, 1,4-butanediamine, N-(3-aminopropyl)]",epithelial tongue migration / wound repair,human ex vivo wounds,promoted a striking improvement in epithelial tongue migration; also recorded: promote wound repair of excisional human skin wounds
"NCCCNCCCCNCCCN [spermine, 1,4-butanediamine, N,N′-bis(3-aminopropyl)]",restoration of impaired cell migration in AMD1-knockdown keratinocytes,sh-AMD1 keratinocytes,restores impaired cell migration in sh-AMD1 keratinocytes
same,cell migration / closure of scratch wound,N/TERT-1 keratinocytes,promoted scratch wound closure in the control cells; also recorded: sufficient to drive increased cell migration
same,cell migration / closure of scratch wound,N/TERT-1 keratinocytes; listed as Spermine,promotes the closure of scratch wounds in keratinocytes
same,rescue of EGBG-induced delay in cell migration,"N/TERT-1 keratinocytes; keratinocytes treated with EGBG, data not shown",similarly rescued by the addition of spermine
same,epithelial tongue migration / wound repair,human ex vivo wounds,promoted a striking improvement in epithelial tongue migration; also recorded: promote wound repair of excisional human skin wounds
C/C=C(/C)C(=O)O[C@H]1C(C)=C2[C@H]([C@@H]1OC(=O)CCCCCCC)[C@@](C)(OC(C)=O)C[C@H](OC(=O)CCC)[C@@]1(O)[C@H]2OC(=O)[C@@]1(C)O [thapsigargin],AMD1 up-regulation in scratched cells,AMD1,completely abrogated; also recorded: completely abrogates AMD1 protein up-regulation
same,propagation of calcium wave upon scratch,[2],effectively prevented the calcium wave
